Here are results for 18 molecules from article PMC9143003, “Neutrophil Immunomodulatory Activity of Farnesene, a Component of Artemisia dracunculus Essential Oils” (Pharmaceuticals, 2022).

Series [1] has as its system WKYMVM-stimulated human neutrophils (FPR2 agonist WKYMVM). The series can be described thus: Inhibition of WKYMVM-induced [Ca2+]i. The format is cell-based. The note with it: pure compounds, 10 min pretreatment, 5 nM WKYMVM, read-out: Inhibition of [Ca^2+]i WKYMVM-Induced IC50. The text has this:
(§1) We obtained human neutrophils using blood collected from healthy donors. Blood collection was approved by the Institutional Review Board at Montana State University (Protocol #MQ041017). Neutrophils were isolated as described previously. The isolated neutrophils were resuspended in HBSS^–. Neutrophil preparations were routinely >95% pure and >98% viable, as determined by light microscopy and trypan blue exclusion, respectively.
(§2) Changes in intracellular Ca^2+ concentrations ([Ca^2+]i) were monitored with a FlexStation 3 (Molecular Devices, Sunnyvale, CA, USA). For these assays, neutrophils were loaded with 1.25 μg/mL Fluo-4AM and incubated in the dark at 37 °C for 30 min. The cells were then washed with HBSS^-. The dye-loaded cells were resuspended in HBSS^+ and pipetted into the wells of black microtiter plates at 2 × 10^5 cells/well. To measure the direct effects of samples on [Ca^2+]i, the test samples were added to the wells (final concentration of DMSO was 1%), and fluorescence was monitored (λex = 485 nm, λem = 538 nm). Changes in fluorescence were monitored every 5 s at room temperature for 240 s. To evaluate the inhibitory effects of the test samples, the samples were added to the wells and incubated for 10 min, with the subsequent addition of 5 nM fMLF, 5 nM WKYMVM, or 25 nM IL-8. Responses were normalized to the response induced by control 5 nM fMLF, 5 nM WKYMVM, or 25 nM IL-8 alone without pretreatment. These responses were assigned as 100%. To calculate median effective concentrations (EC50 or IC50), we used curve fitting (at least five or six points) and nonlinear regression analysis of the dose–response curves. Curve fitting was performed with Prism 9 (GraphPad Software, Inc., San Diego, CA, USA).

Series [2] relates to fMLF-stimulated human neutrophils (FPR1 agonist fMLF). Put plainly: Inhibition of fMLF-induced [Ca2+]i. The format is cell-based. The note with it: pure compounds, 10 min pretreatment, 5 nM fMLF, read-out: Inhibition of [Ca^2+]i fMLF-Induced IC50.
Source text: as §1, §2

Series [3] has as its system human neutrophils. Put plainly: Cytotoxicity assay (CellTiter-Glo), neutrophils. The note with it: pure compounds, 90 min incubation, no cytotoxicity = IC50 > 55 µM. The method, then: We analyze cytotoxicity in human neutrophils or THP-1 monocytic cells. Cytotoxicity was analyzed using a CellTiter-Glo Luminescent Cell Viability Assay Kit (Promega, Madison, WI, USA). Briefly, the cells were incubated (10^4 cells/well) with the indicated concentrations of essential oil or compound for 90 min (for neutrophils) or 24 h (for THP-1 cells) at 37 °C/5% CO2. After incubation, we added substrate. The samples were analyzed using a Fluoroscan Ascent FL microplate reader.

Series [4] deals with human neutrophils. Put plainly: Ca2+ mobilization assay, direct activation of [Ca2+]i. The format is cell-based. The note with it: pure compounds; for EC50: human neutrophils, mean ± SD of three experiments, read-out: Activation of [Ca^2+]i EC50; for Effect on human neutrophil Ca^2+ flux (in words): direct effect.
Source text: as §1, §2
A general note: A change in cytosolic calcium serves as a functional read-out for many receptors and channels.

Series [5] deals with human neutrophils. The series can be described thus: Chemotaxis assay toward fMLF (ChemoTx chambers). The format is cell-based. The note with it: pure compounds, 30 min pretreatment, 1 nM fMLF; for IC50: read-out: Inhibition of fMLF-induced neutrophil chemotaxis IC50.
Source text: as §1
To evaluate effects of samples on neutrophil migration, we resuspended neutrophils in HBSS^+ containing 2% (v/v) heat-inactivated FBS (2 × 10^6 cells/mL). We analyzed chemotaxis using 96-well ChemoTx chambers (Neuroprobe, Gaithersburg, MD). The neutrophils were first preincubated with the indicated concentrations of test samples at room temperature for 30 min. The pretreated cells were then pipetted into the chamber upper wells (4 × 10^4 cells/well). The lower wells contained 30 µL of HBSS^+ with 2% (v/v) heat-inactivated FBS, the indicated test samples or control 1% DMSO, and 1 nM fMLF as the chemoattractant. Three lower wells were reserved for background controls (DMSO treated cells in the upper wells and DMSO without fMLF in the lower wells). We allowed the cells to migrate through the polycarbonate membrane filter for 60 min at 37 °C/5% CO2. We determined the number of migrated cells by measuring ATP in lysates of transmigrated cells and comparing this to a standard curve obtained with known neutrophil numbers, as described previously. Calculation of median effective concentrations (IC50) was performed by nonlinear regression analysis of the dose-response curves.

In series [6] the test system is human THP-1 monocytic cells. Put plainly: Cytotoxicity assay (CellTiter-Glo), THP-1. The format is cell-based. The procedure:
Human THP-1 monocytic cells obtained from ATCC (Manassas, VA, USA) were cultured in RPMI 1640 medium (Mediatech Inc., Herndon, VA, USA) supplemented with 10% (v/v) FBS, 100 μg/mL streptomycin, and 100 U/mL penicillin. […] After incubation, we added substrate.
On the technique in general: In ATP-based viability assays light output follows the ATP content of the culture.

The test system of series [7] is human neutrophils. Also noted: method as in PMID 27586050, PMID 25959257. Conditions: previous analysis; cited from earlier work.
For another series, the system named is FPR1. On the set-up: method as in PMID 16972170, PMID 11211928, PMID 11853704. Conditions: cited from earlier work.
Series [8] relates to IL-8-stimulated human neutrophils. Put plainly: Inhibition of IL-8-induced [Ca2+]i. The format is cell-based. Conditions: 10 min pretreatment, 25 nM human IL-8; read-out: Inhibition of IL-8 induced neutrophil [Ca^2+]i IC50.
Source text: as §1
as §2, with “Responses were normalized to the response induced by control 5 nM fMLF, 5 nM WKYMVM, or 25 nM IL-8 alone without pretreatment. These responses were assigned as 100%. To calculate median effective concentrations (EC50 or IC50), we used curve fitting (at least five or six points) and nonlinear regression analysis of the dose–response curves. Curve fitting was performed with Prism 9 (GraphPad Software, Inc., San Diego, CA, USA).” left out

Like-named read-outs stand apart in the source and are kept apart here.

The term IC50 denotes the concentration that inhibits the measured activity by half. The term EC50 denotes the concentration that produces a half-maximal response. Consider `CC12CCC(CC1)C(C)(C)O2` [1,8-Cineole], for which the IC50 is greater than 55 µM in series [1] (Homo sapiens, Neutrophil) and greater than 55 µM in series [2] (Homo sapiens, Neutrophil). Further, the Cytotoxicity result in the series on human neutrophils [3] was “Nontoxic”. In addition, the concentration for a half-maximal effect (EC50) in the series on human neutrophils [4] (Neutrophil) is greater than 55 µM. Further, the “Effect on human neutrophil Ca^2+ flux (in words)” value in the series with human neutrophils [4] is “did not affect human neutrophil Ca^2+ flux”.

As to `CC12CCC(CC1=O)C2(C)C` (stereo not drawn) [(+)-Camphor], in series [1], the IC50 is greater than 55 µM. Besides, the IC50 in series [2] was greater than 55 µM. Also, in the series with human neutrophils [4], the “Effect on human neutrophil Ca^2+ flux (in words)” value was “did not affect human neutrophil Ca^2+ flux” and the EC50 is greater than 55 µM.

For the molecule `CC1(C)[C@H]2CC[C@]1(C)C(=O)C2` [(−)-Camphor], the IC50 in series [1] (Homo sapiens, Neutrophil) is greater than 55 µM; in [2] (Homo sapiens, Neutrophil) it was greater than 55 µM. In the series on human neutrophils [3], the Cytotoxicity result was “Nontoxic”. Further, the EC50 with human neutrophils [4] (Neutrophil) was greater than 55 µM. The “Effect on human neutrophil Ca^2+ flux (in words)” value in the series on human neutrophils [4] is “did not affect human neutrophil Ca^2+ flux”.

As to `CC1=CC(=O)C(C(C)C)CC1` (centres unmarked) [Piperitone], the IC50 in series [1] (Homo sapiens, Neutrophil) is greater than 55 µM; in series [2] (Homo sapiens, Neutrophil) it was greater than 55 µM. Further, in the series with human neutrophils [3], the Cytotoxicity entry is listed as “Nontoxic”. In addition, the EC50 in the series with human neutrophils [4] (Neutrophil) was greater than 55 µM. The “Effect on human neutrophil Ca^2+ flux (in words)” value in the series on human neutrophils [4] is on record as “did not affect human neutrophil Ca^2+ flux”.

As to `COc1cc(O)c(C(C)=O)c(OC)c1` [Xanthoxylin], the IC50 in series [1] (Homo sapiens, Neutrophil) is 52.7 ± 11.2 µM; in series [2] (Homo sapiens, Neutrophil), 27.2 ± 6.6 µM. Further, the Cytotoxicity result with human neutrophils [3] was “Nontoxic”. Also, the “Inhibition of fMLF-induced neutrophil chemotaxis IC50” value with human neutrophils [5] is “did not affect this response”. For the same molecule, the EC50 with human neutrophils [4] (Neutrophil) came to 53.3 ± 5 µM. In addition, in the series with human neutrophils [4], the “Effect on human neutrophil Ca^2+ flux (in words)” value is listed as “weak activators”. Also, the “Viability of human THP-1 monocytic cells” value in series [6] (24 h incubation) is listed as “did not affect the viability”.

With `C=C1C2CCC(C2)C1(C)C` (centres unmarked) [camphene], in the series on human neutrophils [7], the “Effect on human neutrophil [Ca^2+]i (in words)” value (shortened to “Effect … [Ca^2+]i (in words)”) is “no effect”.

With `C[C@H](CCC(=O)O)[C@H]1CC[C@H]2[C@@H]3[C@H](O)C[C@@H]4C[C@H](O)CC[C@]4(C)[C@H]3CC[C@]12C` [chenodeoxycholic acid], the “Concentrations at which FPR1 is antagonized” value with FPR1 is listed as greater than 100 µM.

Consider `C[C@H](CCC(=O)O)[C@H]1CC[C@H]2[C@@H]3CC[C@@H]4C[C@H](O)CC[C@]4(C)[C@H]3C[C@H](O)[C@]12C` [deoxycholic acid], for which the “Concentrations at which FPR1 is antagonized” value in the series on FPR1 is on record as greater than 100 µM.

For `C=CC(C)(O)CCC=C(C)C` (centres unmarked) [linalool], in the series with human neutrophils [7], the “Effect … [Ca^2+]i (in words)” value is recorded as “no effect”.

As for `C=CCc1ccc(OC)cc1` [methyl chavicol], the “Effect … [Ca^2+]i (in words)” value in the series on human neutrophils [7] is reported as “no effect”.

As to `C=CCc1ccc(OC)c(OC)c1` [methyl eugenol], in the series with human neutrophils [7], the “Effect … [Ca^2+]i (in words)” value is on record as “no effect”.

Take `Cc1ccc(C(C)(C)O)cc1` [p-cymen-8-ol]: in the series on human neutrophils [7], the “Effect … [Ca^2+]i (in words)” value is “no effect”.

Turning to `Cc1ccc(C(C)C)cc1` [p-cymene], the “Effect … [Ca^2+]i (in words)” value with human neutrophils [7] is reported as “no effect”.

`CC1=CCC(O)(C(C)C)CC1` (centres unmarked) [terpinen-4-ol]: the “Effect … [Ca^2+]i (in words)” value with human neutrophils [7] is “no effect”.

For the molecule `CC1=CCC(=C(C)C)CC1` [terpinolene], the “Effect … [Ca^2+]i (in words)” value with human neutrophils [7] is on record as “no effect”.

In the case of `CC1=CCC2CC1C2(C)C` (stereo not drawn) [α-pinene], the “Effect … [Ca^2+]i (in words)” value in the series with human neutrophils [7] was “no effect”.

Turning to (±)-Bornyl acetate, the results for the IC50 (in series [1]; in series [2]; in the series on human neutrophils [5]) were 19.1 ± 0.1 µM, 42.6 ± 9.7 µM and 11.9 ± 1.9 µM, respectively. Moreover, the “Effect on human neutrophil Ca^2+ flux (in words)” value with human neutrophils [4] is reported as “weak activators”. In addition, the EC50 in the series on human neutrophils [4] came out at 50.1 ± 11.5 µM. Moreover, in series [6], the “Viability of human THP-1 monocytic cells” value is on record as “did not affect the viability”.

For the molecule Farnesene, the IC50 amounted to 1.4 ± 0.5 µM in series [1], 1.1 ± 0.2 µM in [2], 2.6 µM in series [8] and 3.3 ± 1.4 µM with human neutrophils [5]. Besides, in the series with human neutrophils [4], the “Effect on human neutrophil Ca^2+ flux (in words)” value is reported as “weak activators”. Moreover, the EC50 with human neutrophils [4] was 28.5 ± 2.6 µM. Moreover, the “Viability of human THP-1 monocytic cells” value in series [6] was “did not affect the viability”.
